From PMC5362750, “Discovery of Potent, Selective, and Orally Bioavailable Small-Molecule Modulators of the Mediator Complex-Associated Kinases CDK8 and CDK19” (Journal of Medicinal Chemistry, 2016)

Assays:
[1] = target: motilin (h) (Homo sapiens, UniProt O43193); assay: CEREP binding assay; details: agonist radioligand, read-out: % Inhibition of Control Specific Binding
[2] = target: T1, PKCMU (Homo sapiens, UniProt Q15139); assay: Kinase panel (Millipore); type: biochemical; details: 1 µM, ATP at Km
T1 construct: purchased Millipore (KinaseProfiler) kinase panel

[3] = target: T2, ZAP-70 (Homo sapiens, UniProt P43403); assay: Kinase panel (Millipore); type: biochemical; details: 1 µM, ATP at Km
T2 construct: purchased Millipore (KinaseProfiler) kinase panel

[4] = female, NMRI, mouse, in vivo
[5] = target: T3, MSK2 (Homo sapiens, UniProt O75676); assay: Kinase panel (Millipore); type: biochemical; details: 1 µM, ATP at Km
T3 construct: purchased Millipore (KinaseProfiler) kinase panel

[6] = target: CHK2(R145W) (Homo sapiens, UniProt O96017, R145W); details: 1 µM, ATP at Km
[7] = target: SRC(T341M) (Homo sapiens, UniProt P12931, T341M); details: 1 µM, ATP at Km
[8] = target: cMET (D1246H) (Homo sapiens, UniProt P08581, D1228H); details: 1 µM, ATP at Km
[9] = target: T4, RSK1 (Homo sapiens, UniProt Q15418); assay: Kinase panel (Millipore); type: biochemical; details: 1 µM, ATP at Km
T4 construct: purchased Millipore (KinaseProfiler) kinase panel

[10] = in vivo; details: male, rat, 0.2 mg/kg
[11] = target: T5, TXK (Homo sapiens, UniProt P42681); assay: Kinase panel (Millipore); type: biochemical; details: 1 µM, ATP at Km
T5 construct: purchased Millipore (KinaseProfiler) kinase panel

[12] = target: T6, PRK2 (Homo sapiens, UniProt Q16513); assay: Kinase panel (Millipore); type: biochemical; details: 1 µM, ATP at Km
T6 construct: purchased Millipore (KinaseProfiler) kinase panel

[13] = system: sigma (non-selective) (h); details: 10 µM, agonist radioligand
[14] = target: PKG1ALPHA (Homo sapiens, UniProt Q13976); assay: Kinase panel (Millipore); type: biochemical; details: 1 µM, ATP at Km
[15] = target: T7, ERBB4 (Homo sapiens, UniProt Q15303); assay: Kinase panel (Millipore); type: biochemical; details: 1 µM, ATP at Km
T7 construct: purchased Millipore (KinaseProfiler) kinase panel

[16] = target: T8, CRF1 (h) (Homo sapiens, UniProt P34998); assay: CEREP binding assay; details: agonist radioligand, read-out: % Inhibition of Control Specific Binding
T8 construct: purchased Millipore (KinaseProfiler) kinase panel

[17] = target: RET(V804M) (Homo sapiens, UniProt P07949, V804M); details: 1 µM, ATP at Km
[18] = target: T9, HIPK1 (Homo sapiens, UniProt Q86Z02); assay: Kinase panel (Millipore); type: biochemical; details: 1 µM, ATP at Km
T9 construct: purchased Millipore (KinaseProfiler) kinase panel

[19] = target: T10, MUSK (Homo sapiens, UniProt O15146); assay: Kinase panel (Millipore); type: biochemical; details: 1 µM, ATP at Km
T10 construct: purchased Millipore (KinaseProfiler) kinase panel

[20] = target: CAMKI (Homo sapiens, UniProt Q14012); assay: Kinase panel (Millipore); type: biochemical; details: 1 µM, ATP at Km
[21] = target: T11, PRKCQ (Homo sapiens, UniProt Q04759); assay: Kinase panel (Millipore); type: biochemical; details: 1 µM, ATP at Km
T11 construct: purchased Millipore (KinaseProfiler) kinase panel

[22] = target: T12, IGF-1R (Homo sapiens, UniProt P08069); assay: Kinase panel (Millipore); type: biochemical; details: 1 µM, ATP at Km
T12 construct: purchased Millipore (KinaseProfiler) kinase panel

[23] = target: EGFR(T790M) (Homo sapiens, UniProt P00533, T790M); details: 1 µM, ATP at Km
[24] = target: T13, SRPK1 (Homo sapiens, UniProt Q96SB4); assay: Kinase panel (Millipore); type: biochemical; details: 1 µM, ATP at Km
T13 construct: purchased Millipore (KinaseProfiler) kinase panel

[25] = system: STAT1^SER727 phosphorylation; details: 30 mg/kg q.d. oral
[26] = target: alpha 2B (h) (Homo sapiens, UniProt P18089); assay: biochemical; details: read-out: % Inhibition of Control Specific Binding
[27] = target: T14, GR (h) (Homo sapiens, UniProt P04150); assay: CEREP binding assay; details: agonist radioligand, read-out: % Inhibition of Control Specific Binding
T14 construct: CEREP

[28] = target: T15, Ca2+ channel (N) (Rattus norvegicus, UniProt Q02294); assay: CEREP binding assay; details: antagonist radioligand, read-out: % Inhibition of Control Specific Binding
T15 construct: CEREP

[29] = target: T16, TAO3 (Homo sapiens, UniProt Q9H2K8); assay: Kinase panel (Millipore); type: biochemical; details: 1 µM, ATP at Km
T16 construct: purchased Millipore (KinaseProfiler) kinase panel

[30] = target: T17, TRKA (Homo sapiens, UniProt P04629); assay: Kinase panel (Millipore); type: biochemical; details: 1 µM, ATP at Km
T17 construct: purchased Millipore (KinaseProfiler) kinase panel

[31] = system: APC-mutant SW620 human colorectal carcinoma xenograft
[32] = target: DDR2 (Homo sapiens, UniProt Q16832); assay: Kinase panel (Millipore); type: biochemical; details: 1 µM, ATP at Km
[33] = target: TIE2(Y897S) (Homo sapiens, UniProt Q02763, Y897S); details: 1 µM, ATP at Km
[34] = target: T18, MKK7BETA (Homo sapiens, UniProt O14733); assay: Kinase panel (Millipore); type: biochemical; details: 1 µM, ATP at Km
T18 construct: purchased Millipore (KinaseProfiler) kinase panel

[35] = target: T19, IGF-1R, ACTIVATED (Homo sapiens, UniProt P08069); assay: Kinase panel (Millipore); type: biochemical; details: 1 µM, ATP at Km
T19 construct: purchased Millipore (KinaseProfiler) kinase panel

[36] = target: T20, MRCKALPHA (Homo sapiens, UniProt Q5VT25); assay: Kinase panel (Millipore); type: biochemical; details: 1 µM, ATP at Km
T20 construct: purchased Millipore (KinaseProfiler) kinase panel

[37] = target: MST1 (Homo sapiens, UniProt Q13043); assay: Kinase panel (Millipore); type: biochemical; details: 1 µM, ATP at Km
[38] = target: ERalpha (h) (Homo sapiens, UniProt P03372); assay: CEREP binding assay; details: agonist fluoligand, read-out: % Inhibition of Control Specific Binding
[39] = target: T21, TRKB (Homo sapiens, UniProt Q16620); assay: Kinase panel (Millipore); type: biochemical; details: 1 µM, ATP at Km
T21 construct: purchased Millipore (KinaseProfiler) kinase panel

[40] = target: T22, SGK (Homo sapiens, UniProt O00141); assay: Kinase panel (Millipore); type: biochemical; details: 1 µM, ATP at Km
T22 construct: purchased Millipore (KinaseProfiler) kinase panel

[41] = target: T23, MSSK1 (Homo sapiens, UniProt Q9UPE1); assay: Kinase panel (Millipore); type: biochemical; details: 1 µM, ATP at Km
T23 construct: purchased Millipore (KinaseProfiler) kinase panel

MST1, sequence (Q13043 whole entry): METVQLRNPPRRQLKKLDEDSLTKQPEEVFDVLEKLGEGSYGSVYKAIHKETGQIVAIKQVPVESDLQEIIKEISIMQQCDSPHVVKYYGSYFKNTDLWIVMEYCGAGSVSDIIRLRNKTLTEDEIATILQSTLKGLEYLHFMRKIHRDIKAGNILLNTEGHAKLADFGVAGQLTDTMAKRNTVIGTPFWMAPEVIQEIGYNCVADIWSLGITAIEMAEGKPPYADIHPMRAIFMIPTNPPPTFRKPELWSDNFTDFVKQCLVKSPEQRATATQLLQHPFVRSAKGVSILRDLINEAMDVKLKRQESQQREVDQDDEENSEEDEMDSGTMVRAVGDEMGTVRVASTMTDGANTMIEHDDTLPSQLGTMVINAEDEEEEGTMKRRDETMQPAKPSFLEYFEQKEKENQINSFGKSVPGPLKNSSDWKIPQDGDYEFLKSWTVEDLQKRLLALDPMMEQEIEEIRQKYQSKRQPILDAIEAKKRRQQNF
T8 sequence (P34998 24-415): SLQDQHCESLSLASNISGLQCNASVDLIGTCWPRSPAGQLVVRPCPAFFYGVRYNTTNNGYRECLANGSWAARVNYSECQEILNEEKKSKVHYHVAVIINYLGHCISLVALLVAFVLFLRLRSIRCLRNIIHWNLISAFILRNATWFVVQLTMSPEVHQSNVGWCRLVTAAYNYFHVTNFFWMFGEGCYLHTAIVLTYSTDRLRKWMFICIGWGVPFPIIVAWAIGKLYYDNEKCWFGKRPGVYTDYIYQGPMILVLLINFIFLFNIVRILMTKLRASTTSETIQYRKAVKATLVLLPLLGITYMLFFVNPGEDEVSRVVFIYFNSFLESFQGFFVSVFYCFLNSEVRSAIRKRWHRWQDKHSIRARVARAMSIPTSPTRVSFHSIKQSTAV
T1 sequence (Q15139 whole entry): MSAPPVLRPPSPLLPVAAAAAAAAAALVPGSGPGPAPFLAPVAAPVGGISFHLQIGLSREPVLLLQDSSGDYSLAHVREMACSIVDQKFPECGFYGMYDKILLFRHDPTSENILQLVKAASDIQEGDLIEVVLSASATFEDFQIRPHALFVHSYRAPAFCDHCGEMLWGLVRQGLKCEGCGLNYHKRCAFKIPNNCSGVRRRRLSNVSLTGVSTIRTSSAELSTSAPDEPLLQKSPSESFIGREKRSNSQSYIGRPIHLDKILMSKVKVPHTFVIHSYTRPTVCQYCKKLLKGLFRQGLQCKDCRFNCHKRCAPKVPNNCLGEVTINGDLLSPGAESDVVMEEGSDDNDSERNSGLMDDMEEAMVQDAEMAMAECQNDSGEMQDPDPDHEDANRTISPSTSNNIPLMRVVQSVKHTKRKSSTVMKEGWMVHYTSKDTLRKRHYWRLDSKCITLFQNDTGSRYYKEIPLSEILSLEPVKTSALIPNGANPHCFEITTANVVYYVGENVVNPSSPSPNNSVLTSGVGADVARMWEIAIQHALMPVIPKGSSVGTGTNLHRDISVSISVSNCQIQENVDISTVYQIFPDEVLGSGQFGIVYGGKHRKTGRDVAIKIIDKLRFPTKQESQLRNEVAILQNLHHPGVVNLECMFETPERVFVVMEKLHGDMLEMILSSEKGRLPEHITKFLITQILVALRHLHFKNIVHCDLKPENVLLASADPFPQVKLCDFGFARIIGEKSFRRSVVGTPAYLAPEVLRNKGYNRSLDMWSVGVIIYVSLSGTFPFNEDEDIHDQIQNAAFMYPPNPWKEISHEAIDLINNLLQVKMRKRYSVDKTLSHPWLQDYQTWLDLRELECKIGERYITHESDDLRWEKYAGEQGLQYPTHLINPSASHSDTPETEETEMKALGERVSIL
PKG1ALPHA, sequence (Q13976 whole entry): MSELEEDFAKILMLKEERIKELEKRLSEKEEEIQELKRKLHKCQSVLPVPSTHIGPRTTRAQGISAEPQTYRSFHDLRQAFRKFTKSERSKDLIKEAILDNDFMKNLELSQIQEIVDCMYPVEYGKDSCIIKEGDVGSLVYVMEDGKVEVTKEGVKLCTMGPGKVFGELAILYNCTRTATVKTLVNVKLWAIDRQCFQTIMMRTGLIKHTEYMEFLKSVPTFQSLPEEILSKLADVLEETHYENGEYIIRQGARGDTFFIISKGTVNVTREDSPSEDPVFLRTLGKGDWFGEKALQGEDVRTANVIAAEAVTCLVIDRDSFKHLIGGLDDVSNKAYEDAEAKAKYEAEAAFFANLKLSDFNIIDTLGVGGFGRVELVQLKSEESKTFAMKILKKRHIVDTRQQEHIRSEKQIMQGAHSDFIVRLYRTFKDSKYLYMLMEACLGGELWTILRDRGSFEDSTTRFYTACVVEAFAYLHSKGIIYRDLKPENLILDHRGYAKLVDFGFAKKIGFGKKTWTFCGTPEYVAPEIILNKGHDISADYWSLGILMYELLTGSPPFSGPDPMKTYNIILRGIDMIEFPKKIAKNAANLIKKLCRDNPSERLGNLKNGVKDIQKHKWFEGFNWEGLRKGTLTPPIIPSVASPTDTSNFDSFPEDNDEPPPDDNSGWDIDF
T3 sequence (O75676 whole entry): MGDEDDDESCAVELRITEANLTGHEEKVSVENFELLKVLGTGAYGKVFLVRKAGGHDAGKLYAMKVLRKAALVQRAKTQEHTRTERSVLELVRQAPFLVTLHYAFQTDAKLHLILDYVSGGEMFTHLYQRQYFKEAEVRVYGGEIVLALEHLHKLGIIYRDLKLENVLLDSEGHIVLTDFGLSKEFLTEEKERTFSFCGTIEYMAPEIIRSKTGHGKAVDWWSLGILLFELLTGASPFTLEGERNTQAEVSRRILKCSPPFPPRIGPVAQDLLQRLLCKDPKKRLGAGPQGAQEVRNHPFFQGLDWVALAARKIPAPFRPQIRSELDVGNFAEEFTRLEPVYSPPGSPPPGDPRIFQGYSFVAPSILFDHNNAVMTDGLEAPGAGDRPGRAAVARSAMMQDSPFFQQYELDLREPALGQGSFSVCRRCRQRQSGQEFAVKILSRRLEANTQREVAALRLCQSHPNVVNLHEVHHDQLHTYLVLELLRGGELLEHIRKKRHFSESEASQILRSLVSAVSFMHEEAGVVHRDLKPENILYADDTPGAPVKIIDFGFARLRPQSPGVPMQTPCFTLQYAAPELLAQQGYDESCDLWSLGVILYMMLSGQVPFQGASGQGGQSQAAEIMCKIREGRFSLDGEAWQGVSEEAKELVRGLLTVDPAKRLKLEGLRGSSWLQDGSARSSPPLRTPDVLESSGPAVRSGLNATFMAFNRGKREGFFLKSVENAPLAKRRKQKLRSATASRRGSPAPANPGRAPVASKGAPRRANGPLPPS
TIE2(Y897S), sequence (Q02763 771-1124 Y897S limits assumed): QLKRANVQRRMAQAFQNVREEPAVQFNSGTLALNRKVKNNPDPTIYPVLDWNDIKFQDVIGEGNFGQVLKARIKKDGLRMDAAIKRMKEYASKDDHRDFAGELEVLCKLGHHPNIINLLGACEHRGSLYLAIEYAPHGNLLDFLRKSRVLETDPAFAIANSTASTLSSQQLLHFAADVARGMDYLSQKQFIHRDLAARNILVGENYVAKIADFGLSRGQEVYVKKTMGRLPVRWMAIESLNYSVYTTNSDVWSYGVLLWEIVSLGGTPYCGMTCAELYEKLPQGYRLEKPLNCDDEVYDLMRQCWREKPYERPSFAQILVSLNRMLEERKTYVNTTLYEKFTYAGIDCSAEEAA
T19 sequence (P08069 31-1367): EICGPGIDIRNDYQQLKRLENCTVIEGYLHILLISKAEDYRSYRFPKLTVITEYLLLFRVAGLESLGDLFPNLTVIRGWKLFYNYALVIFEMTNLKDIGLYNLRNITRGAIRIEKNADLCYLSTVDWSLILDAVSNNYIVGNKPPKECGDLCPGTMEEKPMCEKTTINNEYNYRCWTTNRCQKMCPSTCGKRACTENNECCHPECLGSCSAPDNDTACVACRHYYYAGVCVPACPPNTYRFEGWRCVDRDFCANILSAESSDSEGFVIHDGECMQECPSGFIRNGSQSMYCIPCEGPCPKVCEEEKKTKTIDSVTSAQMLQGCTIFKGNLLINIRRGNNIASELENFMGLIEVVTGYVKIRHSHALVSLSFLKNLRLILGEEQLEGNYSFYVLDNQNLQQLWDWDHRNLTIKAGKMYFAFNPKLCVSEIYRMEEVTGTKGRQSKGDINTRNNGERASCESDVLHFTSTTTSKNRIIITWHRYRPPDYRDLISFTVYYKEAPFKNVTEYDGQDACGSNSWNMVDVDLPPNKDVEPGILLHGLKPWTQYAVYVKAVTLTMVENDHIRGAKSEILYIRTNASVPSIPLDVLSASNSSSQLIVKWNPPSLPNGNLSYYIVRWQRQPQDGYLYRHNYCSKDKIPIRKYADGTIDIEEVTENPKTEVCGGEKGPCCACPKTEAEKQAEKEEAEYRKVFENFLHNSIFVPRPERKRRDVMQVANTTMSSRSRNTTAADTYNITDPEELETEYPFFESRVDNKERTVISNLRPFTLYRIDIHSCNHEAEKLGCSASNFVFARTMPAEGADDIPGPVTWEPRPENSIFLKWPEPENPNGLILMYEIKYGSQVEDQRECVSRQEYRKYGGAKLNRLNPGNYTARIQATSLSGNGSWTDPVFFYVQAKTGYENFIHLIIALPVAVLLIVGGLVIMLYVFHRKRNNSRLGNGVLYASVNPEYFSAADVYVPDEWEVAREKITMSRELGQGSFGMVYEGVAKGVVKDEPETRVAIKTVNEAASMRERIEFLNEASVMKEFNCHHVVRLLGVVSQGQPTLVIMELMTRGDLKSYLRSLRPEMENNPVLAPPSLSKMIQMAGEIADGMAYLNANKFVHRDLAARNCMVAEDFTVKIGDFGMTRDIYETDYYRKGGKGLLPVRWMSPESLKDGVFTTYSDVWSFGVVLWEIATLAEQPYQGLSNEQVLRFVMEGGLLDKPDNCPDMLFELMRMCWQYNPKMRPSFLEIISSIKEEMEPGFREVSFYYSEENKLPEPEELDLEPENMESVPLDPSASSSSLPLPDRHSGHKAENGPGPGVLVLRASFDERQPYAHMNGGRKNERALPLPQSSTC
T12 sequence (P08069 31-1367): as above

Cn1ncc2cc(-c3cnc(N)c(Cl)c3N3CCC4(CCNC4=O)CC3)ccc21 [Compound 109, 8-(2-Amino-3-chloro-5-(1-methyl-1H-indazol-5-yl)pyridin-4-yl)-2,8-diazaspiro[4.5]decan-1-one]
inhibition at 10 µM [1]: 12% | % effect [2]: 5% | % effect [3]: 21% | LBF [4]: 10% | % effect [5]: 5% | % effect [6]: 7% | % effect [7]: -8% | % effect [8]: -8% | % effect [9]: 13% | Vd [10]: 2 L/kg | clearance ([10]; iv): 24.8 mL/min/kg | % effect [11]: -5% | % effect [12]: 1% | % Inhibition of Control Specific Binding [13]: 12% | % effect [14]: 23% | % effect [15]: -28% | inhibition at 10 µM [16]: -7% | % effect [17]: 6% | % effect [18]: 5% | % effect [19]: 3% | % effect [20]: -3% | % effect [21]: -13% | % effect [22]: -26% | % effect [23]: 11% | % effect [24]: -8% | duration of reduced STAT1 SER727 phosphorylation after the last dose [25]: more than 6 h | inhibition at 10 µM [26]: 10% | inhibition at 10 µM [27]: -1% | inhibition at 10 µM [28]: -12% | % effect [29]: -11% | % effect [30]: 2% | T/C (final tumor weights) ([31]; 30 mg/kg q.d. oral, P = 0.0241): 45.8 | tolerability ([31]; 30 mg/kg q.d. schedule): well tolerated with no significant body weight loss | % effect [32]: 19% | % effect [33]: 0% | % effect [34]: -15% | % effect [35]: 1% | % effect [36]: -3% | % effect [37]: 4% | inhibition at 10 µM [38]: 0% | % effect [39]: -11% | % effect [40]: 0% | % effect [41]: -1%
